Experiments:
RORγt [1] = target: T1, RORγt (Homo sapiens, UniProt P51449); test: FRET coactivator-peptide recruitment assay with human RORγt-LBD (inverse agonist, max. -[…]); type: binding
T1 construct: gene RORC; RORγt-LBD

RORγt [2] = target: T1, RORγt; test: FRET coactivator-peptide recruitment assay with human RORγt-LBD (agonist, max. act. […]); type: binding

T1 sequence (Q15788 2-1441): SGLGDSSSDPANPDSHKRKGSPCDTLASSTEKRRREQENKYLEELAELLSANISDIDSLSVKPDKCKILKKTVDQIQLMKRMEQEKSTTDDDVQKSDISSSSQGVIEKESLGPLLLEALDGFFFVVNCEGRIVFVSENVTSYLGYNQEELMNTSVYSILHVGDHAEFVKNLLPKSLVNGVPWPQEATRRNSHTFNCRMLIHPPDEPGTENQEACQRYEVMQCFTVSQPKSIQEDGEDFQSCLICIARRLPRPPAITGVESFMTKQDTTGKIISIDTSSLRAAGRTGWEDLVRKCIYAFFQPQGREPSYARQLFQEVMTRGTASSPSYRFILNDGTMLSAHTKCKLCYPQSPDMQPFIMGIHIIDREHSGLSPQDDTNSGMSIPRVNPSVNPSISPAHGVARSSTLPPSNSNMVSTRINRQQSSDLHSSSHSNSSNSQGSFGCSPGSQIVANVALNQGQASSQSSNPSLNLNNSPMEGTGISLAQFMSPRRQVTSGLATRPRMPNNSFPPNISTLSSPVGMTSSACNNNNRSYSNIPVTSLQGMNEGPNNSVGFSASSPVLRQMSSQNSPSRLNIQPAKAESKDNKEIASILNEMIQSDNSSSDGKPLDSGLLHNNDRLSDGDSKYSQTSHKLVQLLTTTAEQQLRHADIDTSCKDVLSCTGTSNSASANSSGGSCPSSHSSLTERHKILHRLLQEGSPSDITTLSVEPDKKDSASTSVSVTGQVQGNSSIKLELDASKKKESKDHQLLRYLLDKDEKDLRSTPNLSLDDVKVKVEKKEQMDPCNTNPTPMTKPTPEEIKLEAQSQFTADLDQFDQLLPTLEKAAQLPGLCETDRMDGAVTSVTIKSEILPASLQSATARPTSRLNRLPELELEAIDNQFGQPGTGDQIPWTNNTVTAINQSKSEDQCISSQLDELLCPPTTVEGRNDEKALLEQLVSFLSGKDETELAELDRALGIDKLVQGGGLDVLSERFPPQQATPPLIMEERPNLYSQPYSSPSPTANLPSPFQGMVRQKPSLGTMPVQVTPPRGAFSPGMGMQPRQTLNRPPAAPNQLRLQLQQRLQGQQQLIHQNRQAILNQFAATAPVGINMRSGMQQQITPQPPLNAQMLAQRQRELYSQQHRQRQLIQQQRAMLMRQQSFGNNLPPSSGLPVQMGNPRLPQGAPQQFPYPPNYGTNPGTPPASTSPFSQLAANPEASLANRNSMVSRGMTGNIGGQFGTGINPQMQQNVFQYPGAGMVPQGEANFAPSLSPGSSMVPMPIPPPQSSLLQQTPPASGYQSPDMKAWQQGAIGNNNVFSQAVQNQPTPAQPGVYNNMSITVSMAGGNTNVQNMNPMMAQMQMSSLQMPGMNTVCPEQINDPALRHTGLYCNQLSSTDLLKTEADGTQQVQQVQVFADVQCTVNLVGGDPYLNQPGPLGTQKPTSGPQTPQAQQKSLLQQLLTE
T1 sequence (P51449 265-507): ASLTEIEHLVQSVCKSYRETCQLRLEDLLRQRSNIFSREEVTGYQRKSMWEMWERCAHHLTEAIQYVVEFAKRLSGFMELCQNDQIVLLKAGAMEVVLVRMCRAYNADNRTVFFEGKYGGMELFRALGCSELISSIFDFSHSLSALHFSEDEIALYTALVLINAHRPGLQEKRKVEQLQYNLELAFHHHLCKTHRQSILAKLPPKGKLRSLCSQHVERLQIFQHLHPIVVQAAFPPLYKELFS

| SMILES | IC50 (RORγt [1]) [µM] | EC50 (RORγt [2]) [µM] |
| --- | --- | --- |
| CC(=O)N1CCN(c2ccc(N(C3CCC3)S(=O)(=O)Cc3ccccc3)cc2)CC1 [GT] | 0.053 |  |
| CC(=O)N1CCN(c2ccc3c(c2)CCCN3S(=O)(=O)c2ccccc2)CC1 [compound 1, agonist 1] |  | 3.7 |

From PMC6321388, “Molecular Mechanism of Action of RORγt Agonists and Inverse Agonists: Insights from Molecular Dynamics Simulation” (Molecules, 2018)
